How the values were obtained:
tumour growth = conditions: range of models, once-daily oral administration; cited from earlier work
MX-1 tumour xenografts = assay: MX-1 human tumour xenograft growth in female athymic mice; format: in vivo; conditions: female nude mice; for Day 14 Median tumour volume / Day 14 geometric mean tumour volume: Day 14 after implantation (randomisation, start of treatment), ZD6474 25 mg/kg/day p.o., pemetrexed 75 mg/kg i.p.; for Day 28 Median tumour volume / Day 28 geometric mean tumour volume: ZD6474 25 mg/kg/day p.o. once daily, pemetrexed 75 mg/kg i.p. once daily days 14-18 and 21-25
Description: Tumour implantation procedures were performed on mice of at least 5 weeks of age. Human tumour xenografts were grown in female athymic (nu/nu genotype, Swiss) mice. MX-1 tumour fragments were implanted into athymic mice and allowed to grow to 0.7-1 cm^3 to provide donor tumour tissue. The donor tumours were surgically excised and smaller tumour fragments (20-30 mg) were implanted subcutaneously (s.c.) in the right flanks of the experimental athymic mice. When the mean tumour volume reached 0.1-0.3 cm^3, randomisation was carried out. […] An additional group of animals received a combination of pemetrexed and ZD6474, using the same doses and schedules as used for single agent treatment.
Tumour volumes were assessed at least twice weekly by bilateral Vernier caliper measurement. Growth inhibition from the start of treatment was assessed by comparison of the differences in tumour volume between control and treated groups.
Experiments were conducted on female athymic mice (Swiss nu/nu genotype, >6 weeks of age). MX-1 human tumour xenografts were established in mice from tumour cell implants. The donor tumours were surgically excised when they reached a volume of 0.7-1 cm^3, divided into fragments and frozen until further use. At the start of the experiment, fragments (approximately 30 mg) were thawed and implanted (subcutaneously in the dorsal flank) in the experimental animals. Tumour volumes were assessed at least twice weekly by bilateral Vernier calliper measurements. Mice were randomised into treatment groups when the tumour volume reached 0.1-0.2 cm^3. […] An additional group of animals received a combination of ZD6474 and pemetrexed, using the same doses and schedules as used for single agent treatment.
Tumour growth inhibition (TGI) from the start of treatment was assessed by comparison of the differences in tumour volume between control and treated groups.

VEGF RTK = conditions: cited from earlier work

SMILES	Anti-tumour activity (tumour growth)	Day 14 Median tumour volume (MX-1 tumour xenografts) [cm^3]	Day 14 geometric mean tumour volume (MX-1 tumour xenografts) [cm^3]	Day 28 Median tumour volume (MX-1 tumour xenografts) [cm^3]	Day 28 geometric mean tumour volume (MX-1 tumour xenografts) [cm^3]	Inhibition of VEGF RTK (VEGF RTK)
COc1cc2c(Nc3ccc(Br)cc3F)ncnc2cc1OCC1CCN(C)CC1 [ZD6474, 4-(4-bromo-2-fluoroanilino)-6-methoxy-7-(1-methylpiperidin-4-ylmethoxy)quinazoline]	broad-spectrum anti-tumour activity	0.148	0.148	0.967	0.702	potent inhibitor
Nc1nc2[nH]cc(CCc3ccc(C(=O)N[C@@H](CCC(=O)[O-])C(=O)[O-])cc3)c2c(=O)[nH]1.[Na+].[Na+] [pemetrexed, L-Glutamic acid, N-[4-[2-(2-amino-4,7-dihydro-4-oxo-1H-pyffolo[2,3-d]pyrimidin-5-yl)ethyl]benzoyl]-, disodium salt, hetpahydrate]	–	0.147	0.146	0.794	0.751	–

Source: patent US20110212978A1 (AstraZeneca AB, priority 2005, published 2011)
